In one assay the target is T1, CD44 IgG1Fc (Homo sapiens, UniProt P16070).
T1 construct: purchased R & D systems
Put plainly: Direct ELISA: binding of coated macromolecules to CD44-IgG1Fc versus IgG1Fc. Conditions: wells coated at 400 μg/mL; CD44-IgG1Fc or IgG1Fc 1 μg/mL; p<0.001 where significant. On the procedure: (§1) High-binding microtiter plates (Corning, Sigma Aldrich, USA) were coated with rhPRG4 (Mr≅240 KDa), high molecular weight HA (HMW HA; Mr≈1,500 KDa) (R & D System, USA), medium molecular weight HA (MMW HA; Mr≈300 KDa) (R & D System) and vitronectin (Mr≅75 KDa) (Sigma Aldrich) at 400 μg/mL in PBS buffer (100 μL per well) overnight at 4° C. rhPRG4 is a full-length product produced by CHO-M cells (Lubris, Framingham, Mass., USA). Following washing with PBS+0.1% Tween 20, wells were blocked with 2% bovine serum albumin (BSA; 300 μL per well) for at least 2 hours at room temperature. CD44-IgG1Fc (R & D systems) or IgG1Fc (R & D systems), each at 1 μg/mL (100 μl per well), were added to the plate and incubated for 60 min at room temperature. Following washing with PBS+0.1% tween 20, anti-IgG1Fc-HRP (Sigma Aldrich) was added at 1:10,000 dilution (100 μL per well) and incubated for 60 min at room temp. Following washing with PBS+0.1% tween 20, the assay was developed using 1-step Turbo TMB ELISA reagent (ThermoScientific, USA) and absorbance was measured at 450 nm. The data represents an average of 4 independent assays, each with triplicate wells per group.

In the next assay the target is T2, CD44 (Homo sapiens, UniProt P16070).
T2 construct: purchased R & D systems
T2 sequence (P16070 with tags, fused parts or gaps limits assumed): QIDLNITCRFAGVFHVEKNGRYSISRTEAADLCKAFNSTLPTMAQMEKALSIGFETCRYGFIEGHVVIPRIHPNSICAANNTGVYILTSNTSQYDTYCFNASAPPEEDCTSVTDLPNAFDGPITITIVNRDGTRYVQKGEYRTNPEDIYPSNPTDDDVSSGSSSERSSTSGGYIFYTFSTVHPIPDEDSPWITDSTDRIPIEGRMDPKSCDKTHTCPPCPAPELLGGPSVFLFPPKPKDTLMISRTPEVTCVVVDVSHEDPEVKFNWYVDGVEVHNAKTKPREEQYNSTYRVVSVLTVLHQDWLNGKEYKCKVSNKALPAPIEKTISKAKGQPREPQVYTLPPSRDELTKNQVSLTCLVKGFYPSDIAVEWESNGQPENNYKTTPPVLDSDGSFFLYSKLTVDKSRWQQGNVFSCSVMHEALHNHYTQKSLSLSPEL
Put plainly: Concentration-dependent binding to CD44, direct ELISA. Here is the method: as §1
The concentration-dependent binding of rhPRG4, HMW HA and MMW HA to CD44 was performed by coating microtiter plates with 400, 200, 100, 20, 4, 2 and 0.1 μg/mL of the macromolecules. The assay was performed as described above. The absorbance values in the IgG1Fc wells were subtracted from the absorbance values in the CD44 IgG1Fc wells and the corrected CD44 IgG1Fc absorbance values were normalized to those of the 400 μg/mL rhPRG4 group and data was expressed as percentage binding to CD44. The concentration-dependent binding of rhPRG4, HMW HA and MMW HA to recombinant CD44 is depicted in FIG. 1B. […] The data represents an average of 4 independent assays, each with triplicate wells per group.

The subject of another assay is whole citrated blood. As to the kind of experiment: Lubricin on LPS-mediated inflammatory cytokine generation in whole blood. It counts as cell-based, human. As to conditions: LPS 10 ng/mL then lubricin 0.57 mg/mL, versus LPS alone. On the procedure:
The effect of lubricin on LPS-mediated inflammatory cytokine generation was studied using Biochip Array technology. In these studies LPS alone at 10 ng/mL and LPS pre-supplementation at 10 ng/mL followed by lubricin supplementation at 0.57 mg/mL were compared in the whole citrated blood for the generation of various inflammatory cytokines. All samples were incubated for 60 minutes and centrifuged to obtain plasma. This plasma was subsequently analyzed using the biochip array for inflammatory cytokines. LPS was supplemented to whole blood in a 1:10 dilution.

For a further assay, the system named is human whole blood. As to the kind of experiment: Lubricin on tissue factor mediated inflammatory cytokine generation in whole blood. The format is cell-based. Here is the method:
The effect of lubricin on recombinant tissue factor (TF) mediated inflammatory cytokine generation was studied using Biochip Array technology. In these studies recombiplastin brand (IL Laboratories) tissue factor was used to trigger the generation of inflammatory cytokines in human whole blood. The effect of lubricin at 0.57 mg/mL was studied by supplementing this agent prior to the addition of tissue factor to the whole blood. Tissue factor alone served as a positive control. The blood samples were centrifuged and plasma retrieved. This plasma was then profiled for the inflammatory cytokine profile on the Randox Biochip arrays. TF was supplemented to whole blood in a 1:10 dilution.

The test system of assay [1] is osteoarthritic (OA) synovial fluid cells. As to the kind of experiment: Cytokines secreted by osteoarthritic synoviocytes (Luminex). The format is cell-based, human. Conditions: rhPRG4 90 μg/mL, 24 hours, versus PBS. On the procedure:
(§2) Synovial fluid cells were obtained from normal and osteoarthritic (OA) patients and purified with CD90+ following an immune cell depletion. The cells were plated at 10,000 per well and suspended in media containing DMEM, heat-inactivated Hyclone FBS (10%), and Anti-Anti (1%). The assays contained the cell suspension (cells+ media) at 180 μL and the ligands at 20 μL for a total volume of 200 μL. Recombinant lubricin (rhPRG4) was then introduced to the cells at a concentration of 90 μg/mL and the negative control was PBS. The plate was then incubated at 37° C. at 5% CO2 for 24 hours, after which the supernatants were collected for cytokine analysis via the Luminex multiplex platform.

Assay [2] concerns normal synovial fluid cells. As to the kind of experiment: Cytokines secreted by normal synoviocytes (Luminex). It counts as cell-based, human. Conditions: rhPRG4 90 μg/mL, 24 hours, lubricin vs. PBS. Here is the method:
as §2

The test system of the next assay is traumatic brain injury. Put plainly: Traumatic brain injury model, controlled cortical impact, Western blotting of cerebral cortex. The format is in vivo, rats. On the procedure: Approximately one hour after traumatic brain injury to rats, using an established brain injury model involving a controlled cortical impact, rhPRG4 was administered intravenously to test rats at an approximate dose of 2.5 mg/Kg. Normal saline (0.9% NaCl) was administered intravenously to control rats. One day later, brains were harvested and the samples of the cerebral cortex surrounding the post-traumatic lesion were analyzed using Western blotting.

The test system of assay [3] is sodium urate crystal induced joint pain. As to the kind of experiment: Urate crystal gout model, Von Frey paw withdrawal. It counts as in vivo. As to conditions: rhPRG4 injection after urate crystals; two rats per group. Here is the method: Male Lewis rats (10 weeks old; n=4) were injected with MSU suspension (50 μL; 5 mg/mL; Invivogen, California) in their knee joints. At 1 hour following MSU injection, rat knee joints were treated with 50 μL phosphate buffered saline (PBS; n=2) or rhPRG4 (50 μL; 2 mg/mL) (n=2). Paw withdrawal pressures were measured using an electronic Von Frey instrument, and data is present as percent change from baseline values.
Rats undergoing injection of sodium urate crystals were studied as a model of gout. 24 hours following the sodium urate crystal administration, rats developed joint pain. Two rats received saline while another two rats received rhPRG4 injection 24 hours after the urate crystals were introduced. These rats were studied every 12 hours utilizing the Von Frey method. This method determines afferent pain sensitization as a result of joint inflammation by probing the paws of the affected limb with a thin filament wire.

The mark [4] stands for this setting: approx. 2.5 mg/Kg intravenously, versus normal saline.

T1 sequence (P16070 with tags, fused parts or gaps limits assumed): as above

In the case of “rhPRG4: full-length recombinant human PRG4 (lubricin) glycoprotein produced by CHO-M cells (Lubris), Mr≅240 KDa”, in the assay with CD44 IgG1Fc, the “450 nm absorbance in the CD44-IgG1Fc group versus the IgG1Fc group” value is “significantly higher”. For the same substance, in the assay with CD44, the “affinity of concentration-dependent binding to CD44” value is recorded as “comparable affinity to HMW HA”. Besides, the “percentage CD44 binding, difference between rhPRG4, HMW HA and MMW HA-coated wells” value with CD44 (coating 0.1 μg/mL) is “no significant differences”. In the assay with CD44 (coating 200 μg/mL, p<0.001), the “percentage recombinant CD44 binding compared to MMW HA coated wells” value was “significantly higher”. For the same substance, the “percentage recombinant CD44 binding compared to HMW HA or MMW HA-coated wells” value in the assay with CD44 (coating 400, 100, 20, 4 and 2 μg/mL, p<0.001) is recorded as “significantly higher”. The “IL-4, IL-6, IL-8, IL-10, VEGF, TNF-α, IL-1β, MCP-1 and EGF” value in the assay with whole citrated blood (60 minutes) is reported as “decrease”. In the assay with whole citrated blood, the “EGF, IL10, VEGF, MCP1, IL1b and TNF levels” value is listed as “marked decrease”. Also, in the assay on human whole blood (lubricin 0.57 mg/mL before tissue factor (1:10), versus TF alone), the “IL-6, IL-8, VEGF, TNF-α, IL-1α, IL-1β, MCP-1 and EGF” value was “decrease”. The “TNF-α and VEGF levels” value with human whole blood (lubricin 0.57 mg/mL, tissue factor supplemented samples) is given as “pronounced decrease”. The “FGF-2 and IL-1Ra cytokines” value in assay [1] is given as “down-regulation”. The cytokine response result in assay [2] was “did not show any changes”. The “down regulation of Galectin 3” value with traumatic brain injury (approx. 2.5 mg/Kg intravenously about one hour after injury, brains harvested one day later, versus normal saline) is listed as 74%. In the assay with traumatic brain injury (setting [4]), the “attenuation of post-traumatic synthesis of matrix metalloproteinase 9” value was determined as 94% and the “inhibition of the conversion of pro-matrix metalloproteinase 2 to its enzymatically active form” value is listed as 64%. Further, the “reduction in the magnitude of post-traumatic influx of monocytes into the injured brain parenchyma” value with traumatic brain injury (approx. 2.5 mg/Kg intravenously, versus normal saline-treated rats) is 60%. The “reduction of the permeability of the blood-brain barrier” value in the assay on traumatic brain injury (assessed by level of albumin in traumatized brain tissue, approx. 2.5 mg/Kg intravenously) was 80%. The “pain (Von Frey method) versus rats which received placebo” value in assay [3] was “less pain”.

These data come from patent publication US11717557B2, “Use of PRG4 as an anti-inflammatory agent” (Lubris LLC, priority 2015, dated 2023).
